Measurements reported in patent publication US20210154162A1, “DRUG AND PHARMACEUTICAL COMPOSITION CONTAINING TRANSPORT PROTEIN INHIBITOR, AND USE” (Institute of Basic Medical Sciences Chinese Academy of …, priority 2018, published 2021).
Each block holds one compound with its values, some of them ahead of it.

Experiments:
PD-L1 = PD-L1 expression on TRCs upon IFN-γ; format: cell-based, mouse
B16 TRCs = test: Kyn release by IFN-γ-treated tumor cells (ELISA of supernatants); format: cell-based, mouse; settings: IFN-γ 10 ng/ml, 24 h
Experimental: (3) OVA-B16 cells grown in culture flask or OVA-B16 TRCs were treated with IFN-γ (10 ng/ml) for 24 h. Kyn levels in the supernatants were determined by ELISA.

SLC1A5 [1] = test: SLC1A5 expression in TRCs upon IFN-γ; format: cell-based; settings: IFN-γ treatment, mRNA and protein levels
IDO1 = IDO1 expression in TRCs upon IFN-γ; format: cell-based
PAT4 and SLC7A8 [2] = test: PAT4 and SLC7A8 expression in activated CD8+ T cells (real-time PCR, immunostaining); format: cell-based, mouse
Experimental: (2) Activated CD8^+ T cells were treated with PBS or Kyn (200 μM) for 24 h. The expression of PAT4 and SLC7A8 was determined by real-time PCR (left) and immunostaining (right). Bar, […].
(6) The mRNA expression of PAT4 and SLC7A8 was determined in activated CD8^+ T cells treated with PBS, Kyn, Kyn/CH-223191 (10 μM) or Kyn/DMF (20 μM) for 48 h.

OVA-B16 TRCs = test: OVA-B16 TRC / activated OT-1 T cell co-culture with IDO1 or SLC1A5 blockade (flow cytometry); format: cell-based, mouse; settings: for expression of IFN-γ, TNF-α and CD107a: T cells in co-culture with OVA-B16 TRCs; for PD-1 expression on T cells: co-culture with OVA-B16 TRCs, 24 h; for TRC apoptosis: co-culture with activated OT-1 T cells, 4 h
Experimental: (7) Scramble- or shIDO1-(Sh1 or Sh2)-OVA B16 TRCs were co-cultured with anti-CD3/CD28 bead-activated OT-1 T cells. After 4 h or 24 h, TRC apoptosis (as shown in FIG. 2G) or PD-1 expression on T cells (as shown in FIG. 2H) was analyzed by flow cytometry. The analysis results were as shown in FIG. 2G and FIG. 2H, respectively.
(9) Scramble- and shSLC1A5-(Sh1 or Sh2)-OVA B16 TRCs were co-cultured with anti-CD3/CD28 bead-activated OT-1 T cells. After 4 h or 24 h, TRC apoptosis (as shown in FIG. 2J) or PD-1 expression (as shown in FIG. 2K) was analyzed by flow cytometry. The analysis results were as shown in FIG. 2J and FIG. 2K, respectively.

PD-1 [3] = test: PD-1 expression in patients' peripheral blood T cells treated with supernatants of IFN-γ-treated CD45- tumor cells; format: cell-based, human; settings: CD45- tumor cells treated with IFN-γ with or without 1-MT 24 h; supernatants on T cells 24 h
Experimental: Moreover, very high PD-1 expression was found in tumor-infiltrating CD8^+ T cells of breast and colon cancer patients (FIG. 7A). […] It was worth noting that Kyn levels were strongly correlated with PD-1 expression in breast and colon cancer patients, but not in healthy people (FIG. 7C). To clarify the cellular source of the Kyn production, CD45^+ immune cells and CD45^− tumor cells isolated from breast tumor tissues (n=10) and colon tumor tissues (n=14) of patients were analyzed. IDO1 expression as well as Kyn levels were dominantly high in CD45^− cells rather than CD45^+ cells. Then, the inventors treated CD45^− tumor cells with IFN-γ in the presence or absence of 1-MT for 24 hours in vitro. The supernatants were used to treat peripheral blood T cells of patients for 24 hours.

SLC1A5 [4] = target: T1, SLC1A5 (Mus musculus, UniProt P51912); test: Tryptophan levels in B16 TRC lysates (ELISA); format: cell-based
T1 construct: endogenous in cells; host or cells: B16 tumor-repopulating cells (TRCs)
T1 sequence (P51912 1-553): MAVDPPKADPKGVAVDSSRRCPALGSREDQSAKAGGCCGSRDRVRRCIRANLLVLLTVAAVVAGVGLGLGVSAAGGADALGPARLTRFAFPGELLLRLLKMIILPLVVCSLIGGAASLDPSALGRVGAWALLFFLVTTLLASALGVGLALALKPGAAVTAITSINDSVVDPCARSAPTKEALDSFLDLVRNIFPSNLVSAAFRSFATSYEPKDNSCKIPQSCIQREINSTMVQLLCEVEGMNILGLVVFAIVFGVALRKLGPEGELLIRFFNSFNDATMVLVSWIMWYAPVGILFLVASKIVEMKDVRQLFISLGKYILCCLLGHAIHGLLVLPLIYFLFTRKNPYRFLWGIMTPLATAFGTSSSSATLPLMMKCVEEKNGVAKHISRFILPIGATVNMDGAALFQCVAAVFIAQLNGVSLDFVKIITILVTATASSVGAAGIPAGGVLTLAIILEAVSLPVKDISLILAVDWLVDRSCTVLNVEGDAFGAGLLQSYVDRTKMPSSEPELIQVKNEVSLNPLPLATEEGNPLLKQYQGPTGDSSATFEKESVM
Experimental: (8) Tryptophan levels in cell lysates were determined by ELISA in scramble- and shSLC1A5-(Sh1 or Sh2)-B16 TRCs in the presence or absence of IFN-γ for 24 h.

[5] = target: T2, tryptophan transporter SLC1A5 (Mus musculus, UniProt P51912); test: Effect of GPNA on the uptake of tryptophan by tumor cells (ELISA of lysates); format: cell-based; settings: OVA-B16 cells, 50 ng/mL IFN-γ + 10 μM GPNA, 24 h
T2 construct: endogenous in cells; host or cells: mouse OVA-B16 melanoma cells
T2 sequence (P51912 1-553): T1 sequence (P51912 1-553)
Experimental: Mouse OVA-B16 cells were cultured in RPMI-1640 culture medium in vitro and were group and treated as follows.
(§1) Control group 1 (PBS): culture medium+PBS;
Control group 2 (GPNA): culture medium+10 μM GPNA;
Experimental group 3 (IFN-γ): culture medium+50 ng/mL IFN-γ;
Experimental group 4 (IFN-γ+GPNA): culture medium+50 ng/mL IFN-γ+10 μM GPNA;
The cells in each group were collected after 24 h and ultrasonically broken, the concentrations of tryptophan in the lysates were determined by ELISA, and BCA protein assay was carried out at the same time.

PD-1 [6] = test: Effect of GPNA on PD-1 expression in specific OT-1 CD8+ T cells co-cultured with 3D-cultured OVA-B16 cells; format: cell-based, mouse; settings: 3D-cultured OVA-B16 cells treated 12 h with 10 μM GPNA, co-culture 1:10, 4 h
Experimental: 3D-cultured OVA-B16 cells were grouped and treated with drug as follows.
as §1
Experimental group 2 (GPNA): culture medium+10 μM GPNA;
After 12 h of treatment, the cells were co-cultured with OT-1 CD8^+ T cells that had been activated for 48 h at a ratio of 1:10, and PD-1 expression in CD8^+ T cells was determined by flow cytometry after 4 h.

AhR = test: PD-1 expression in activated CD8+ T cells treated with Kyn plus AhR inhibitor (flow cytometry); format: cell-based, mouse; settings: Kyn plus inhibitor (DMF 10 or 20 μM), 72 h
Experimental: (4) CD8^+ T cells activated by anti-CD3/CD28 beads were treated with PBS, Kyn or Kyn/DMF (10 or 20 μM) for 72 h. The expression of PD-1 was determined by flow cytometry.

PD-1 [7] = test: OVA-B16 melanoma-bearing mice with adoptively transferred CFSE-labeled OT-1 T cells, PD-1 expression; format: in vivo, mouse; settings: DMF 5 μg/mouse, 6 days; CFSE+ T cells from tumor mass, spleen or lymph nodes
Experimental: (6) C57BL/6 mice with 5×5 mm OVA-B16 melanoma were adoptively transferred with CFSE-labeled OT-1 CD8^+ T cells (4×10^6 cells/mouse, once every three days) on three occasions. At the same time, some mice were i.p. injected with Kyn (50 μg/mouse, once every two days) for three times. On Day 7 after transferring, CFSE^+CD8^+ T cells were isolated from tumor for flow cytometric analysis of PD-1 expression.
(8) The experimental steps were the same as those of step (7), except that C57BL/6 mice were treated with Kyn, DMF (5 μg/mouse, o.t., twice every day) or Kyn+DMF for 6 days. CFSE^+CD8^+ T cells from tumor were isolated for flow cytometric analysis of PD-1 expression.

B16 melanoma = test: B16 melanoma-bearing C57BL/6 mice treated with Kyn, DMF or Kyn+DMF; format: in vivo, mouse
Experimental: (9) C57BL/6 mice with 5×5 mm B16 melanoma were treated with PBS, Kyn (50 μg/mouse, i.p., once every two days), DMF (5 μg/mouse, o.t., once every day) or Kyn+DMF for 6 days. PD-1 expression in CD8^+ T cells isolated from tumors was determined by flow cytometry (n=5). (14) The experimental steps were the same as those of step (9), except that the tumors were weighed. The weighing results were as shown in FIG. 6P. *p<0.05, **p<0.01; #p<0.05, ##p<0.01, as compared with CTL group. The data represented mean±SEM.

PD-1 [8] = test: ID8 ovarian cancer and H22 hepatocarcinoma ascites peritoneal tumor models; format: in vivo, mouse; settings: DMF
Experimental: (10) C57BL/6 mice were intraperitoneally injected with 1×10^6 ID8 ovarian cancer cells. After 10 days, mice were intraperitoneally administered with PBS, Kyn, DMF or Kyn+DMF for 6 days. CD8^+ T cells from ascites were isolated and PD-1 expression was determined by flow cytometry (n=5).

OVA-B16 melanoma = OVA-B16 melanoma mice, adoptive OT-1 CD8+ T cell transfer plus DMF or anti-PD-1 antibody; format: in vivo; settings: anti-PD-1 antibody 250 μg/day or DMF 5 μg/mouse twice every day
Experimental: (13) C57BL/6 mice with 5×5 mm OVA-B16 melanoma were adoptively transferred with or without OT-1 CD8^+ T cells (4×10^6 cells/mouse) once per three days for three times. At the same time, these mice were treated with PBS, DMF (5 μg/mouse, o.t., twice every day) or anti-PD-1 neutralizing antibody (250 μg/day, once every two days, twice) for 20 days. The tumor growth was measured (left) and the long-term survival rate was analyzed (right).

PD-1 [9] = test: PD-1 expression in human CD8+ T cells treated with Kyn and AhR inhibitors (flow cytometry); format: cell-based; settings: 48 h
Experimental: (4) CD8^+ T cells isolated from PBMCs of patients with breast cancer or lung cancer were activated by anti-CD3/CD28 beads and treated with PBS, Kyn (200 μM) or Kyn/DMF (20 μM) for 48 h. The expression of PD-1 was determined by flow cytometry.
(5) CD8^+ T cells isolated from patients with breast cancer or lung cancer were treated with DMF (20 μM) for 48 h. PD-1 expression was determined by flow cytometry (n=6).

PAT4 and SLC7A8 [10] = test: PAT4 and SLC7A8 expression in CD8+ T cells from breast cancer patients (real-time PCR); format: cell-based, human; settings: Kyn/DMF (20 μM) or Kyn/CH (50 μM), 48 h
Experimental: (8) CD8^+ T cells from breast cancer patients were treated with PBS, Kyn ([…] (20 μM) or Kyn/CH (50 μM) for 48 h. The expression of PAT4 and SLC7A8 was determined by real-time PCR. The determination results were as shown in FIG. 7I.

Compound: IFN-γ: recombinant IFN-γ purchased from R & D Systems
expression of PD-L1 (PD-L1): upregulated
Kyn levels in the supernatants (B16 TRCs): release high levels of Kyn
expression of SLC1A5 (SLC1A5 [1]): further augmented
IDO1 expression (IDO1): further upregulated
expression of PAT4 and SLC7A8 (PAT4 and SLC7A8 [2]; CD8+ T cells, IFN-γ treatment): did not affect

Compound: Cn1cc(C[C@@H](N)C(=O)O)c2ccccc21 [1-MT]
expression of IFN-γ, TNF-α and CD107a (OVA-B16 TRCs): upregulation
PD-1 expression on T cells (OVA-B16 TRCs): downregulation
TRC apoptosis (OVA-B16 TRCs): more TRC apoptosis
PD-1 upregulation in CD8+ T cells by supernatants (PD-1 [3]): blocked

intracellular levels of tryptophan in TRCs (SLC1A5 [4]): decreased
uptake of tryptophan by tumor cells [5]: significantly reduced
Compound: N[C@@H](CCC(=O)Nc1ccc([N+](=O)[O-])cc1)C(=O)O [GPNA, L-γ-Glutamyl-p-nitroanilide]
expression of IFN-γ, TNF-α and CD107a (OVA-B16 TRCs): upregulation
PD-1 expression on T cells (OVA-B16 TRCs): downregulation
TRC apoptosis (OVA-B16 TRCs): more TRC apoptosis
PD-1 expression in specific OT-1 CD8+ T cells (PD-1 [6]): significantly inhibit

Compound: COc1ccc(-c2cc(=O)c3ccccc3o2)cc1OC [DMF, 3′,4′-dimethoxyflavone]
Kyn-dependent upsurge of PD-1 (AhR): thwarted
Kyn-induced upregulation of SLC7A8 and PAT4 (PAT4 and SLC7A8 [2]; activated CD8+ T cells, Kyn/CH-223191 (10 μM) or Kyn/DMF (20 μM), 48 h): effectively inhibiting
Kyn-triggered upregulation of PD-1 expression in tumor-specific CD8+ T cells (PD-1 [7]): abrogated
accelerated tumor growth seen with Kyn-treatment (B16 melanoma; Kyn+DMF): reversed
Kyn-induced PD-1 upregulation in CD8+ T cells isolated from tumor, spleen or lymph nodes (B16 melanoma; Kyn+DMF (5 μg/mouse), 6 days): blocked
expression pattern of PD-1, IFN-γ and TNF-α (PD-1 [8]): reversed
therapeutic effect of adoptively transferred OVA-specific CD8+ T cells (tumor growth, survival) (OVA-B16 melanoma): equal treatment efficiency
Kyn-induced PD-1 upregulation (PD-1 [9]; human CD8+ T cells, Kyn plus inhibitor (DMF 20 μM)): inhibited
PD-1 expression (PD-1 [9]; patients' CD8+ T cells, DMF alone 20 μM): directly downregulate PD-1 expression
Kyn-induced upregulation of SLC7A8 and PAT4 (PAT4 and SLC7A8 [10]): blocked
